Experimental data as given in the NIST ThermoML archive (doi:10.1021/je900974u).

Tests used:
[1] = molar heat capacity at constant pressure; details: 101.33 kPa, Liquid, Vacuum adiabatic calorimetry
[2] = Molar enthalpy of transition or fusion; details: Crystal; Adiabatic calorimetry
[3] = for Triple point temperature: Crystal; for mass density: 101.33 kPa, Liquid, Pycnometric method

CCOS(=O)(=O)[O-].CCn1cc[n+](C)c1 [1-ethyl-3-methylimidazolium ethyl sulfate]
[1]
Details	molar heat capacity at constant pressure [J/K/mol]
191.13 K	354.4
193.05 K	354.6
194.98 K	354.9
196.91 K	355.1
198.84 K	355.3
200.77 K	355.7
202.71 K	355.9
204.64 K	356.3
206.57 K	356.6
208.5 K	356.9
210.44 K	357.2
212.37 K	357.5
214.3 K	357.9
216.24 K	358.3
218.18 K	358.7
220.11 K	359.2
222.05 K	359.6
223.98 K	360.1
225.92 K	360.4
227.86 K	360.9
229.8 K	361.4
231.74 K	362.1
233.68 K	362.5
235.62 K	363
237.56 K	363.5
239.5 K	364
241.43 K	364.6
243.37 K	365.1
245.32 K	365.6
247.26 K	366.2
249.2 K	366.8
251.14 K	367.4
253.08 K	367.9
255.02 K	368.5
256.96 K	369.1
258.9 K	369.9
260.85 K	370.3
262.79 K	371
264.73 K	371.7
266.67 K	372.1
268.62 K	372.7
270.55 K	373.4
272.5 K	374.1
274.44 K	374.8
276.38 K	375.1
278.32 K	375.6
280.25 K	376.5
282.2 K	377
284.14 K	377.6
286.08 K	378.2
288.03 K	378.7
289.97 K	379.4
291.91 K	380.2
293.85 K	381
295.79 K	381.9
297.74 K	382.6
299.68 K	383.5
301.62 K	384.2
303.56 K	385
305.51 K	385.9
307.45 K	386.7
309.39 K	387.5
311.33 K	388.6
313.28 K	389.5
315.22 K	390.4
317.16 K	391.4
319.11 K	392.2
321.05 K	393.2
322.99 K	394
324.93 K	395
326.88 K	395.9
328.82 K	396.9
330.77 K	397.7
332.71 K	398.5
334.66 K	399.7
336.6 K	400.5
338.54 K	401.4
340.49 K	402.7
342.43 K	403.5
344.38 K	404.4
346.32 K	405.7
348.27 K	406.7
350.21 K	407.8
352.15 K	408.8
354.1 K	409.7
356.04 K	410.8
357.98 K	411.9
359.92 K	412.8
361.86 K	413.9
363.8 K	414.9
365.75 K	415.9
367.69 K	416.8

CCCCCCCC[n+]1ccn(C)c1.F[B-](F)(F)F [1-methyl-3-octylimidazolium tetrafluoroborate]
Details	Molar enthalpy of transition or fusion [kcal/mol]	Triple point temperature [K]
[2]	3.513	–
[3]	–	245.75

[1]
Details	molar heat capacity at constant pressure [J/K/mol]
195.88 K	466.3
197.4 K	465.8
198.93 K	465.5
200.46 K	464.9
202.1 K	464.6
203.86 K	464.1
205.61 K	463.8
207.37 K	463.5
209.14 K	463.2
210.91 K	463.2
212.69 K	463.2
214.47 K	463.2
216.25 K	463.5
218.04 K	463.5
218.59 K	463.5
219.83 K	463.8
220.61 K	463.8
221.62 K	464.1
222.57 K	464.1
223.42 K	464.4
224.52 K	464.6
225.22 K	464.6
226.48 K	464.9
227.02 K	464.9
228.43 K	465.5
228.83 K	465.5
230.39 K	466.1
230.63 K	466.3
232.35 K	466.3
234.3 K	466.6
236.26 K	467.5
238.22 K	468
240.18 K	468.6
242.14 K	469.4
244.1 K	470.3
246.06 K	470.8
247.53 K	471.7
248.02 K	471.7
249.36 K	472.5
249.99 K	472.5
251.18 K	473.1
251.95 K	473.4
253 K	473.7
253.91 K	474.2
254.83 K	474.5
255.87 K	475.1
256.65 K	475.4
257.83 K	476.2
258.48 K	476.2
260.3 K	477.3
262.13 K	478.2
263.95 K	479
265.78 K	480.1
267.6 K	481
269.43 K	482.1
271.26 K	483
273.08 K	483.8
274.91 K	484.6
276.74 K	486.1
278.57 K	486.9
280.39 K	488
282.22 K	488.9
284.05 K	490
285.87 K	490.8
287.7 K	492
289.53 K	493.1
291.35 K	494.2
293.18 K	495.1
295 K	496.2
296.83 K	497.3
298.65 K	498.2
300.48 K	499.3
302.36 K	500.4
304.29 K	501.6
306.22 K	502.7
308.16 K	503.8
310.09 K	504.9
312.02 K	505.8
313.95 K	507.2
315.89 K	508.3
317.82 K	509.4
319.75 K	510.6
321.68 K	512
323.62 K	513.1
325.55 K	514.2
327.48 K	515.1
329.41 K	516.5
331.34 K	517.9
333.27 K	519.3
335.19 K	520.4
337.12 K	521.8
339.05 K	523
340.97 K	524.4
342.9 K	525.5
344.82 K	526.6
346.75 K	528
348.68 K	529.5
350.6 K	530.9
352.53 K	532.3
354.45 K	533.4
356.38 K	534.8
358.3 K	535.9
360.22 K	537.3
362.14 K	539
364.06 K	539.9
365.98 K	541.3
367.89 K	542.7

CCC[n+]1ccn(C)c1.[Br-] [1-methyl-3-propylimidazolium bromide]
Details	Molar enthalpy of transition or fusion [kcal/mol]	Triple point temperature [K]
[2]	4.589	–
[3]	–	309.56

Details	mass density [kg/m3]	molar heat capacity at constant pressure [J/K/mol]
[1], 222.57 K	–	260
[1], 224.61 K	–	260.5
[1], 226.66 K	–	260.8
[1], 228.71 K	–	261.3
[1], 230.76 K	–	261.7
[1], 232.81 K	–	262.1
[1], 234.85 K	–	262.7
[1], 236.9 K	–	263.1
[1], 238.95 K	–	263.5
[1], 241 K	–	264
[1], 243.05 K	–	264.4
[1], 245.1 K	–	264.9
[1], 247.15 K	–	265.4
[1], 249.2 K	–	266
[1], 251.25 K	–	266.5
[1], 253.31 K	–	267.1
[1], 255.36 K	–	267.6
[1], 257.41 K	–	268.2
[1], 259.46 K	–	268.8
[1], 261.51 K	–	269.5
[1], 263.56 K	–	270
[1], 265.62 K	–	270.6
[1], 267.67 K	–	271.2
[1], 269.72 K	–	271.8
[1], 271.77 K	–	272.5
[1], 273.82 K	–	273.2
[1], 275.87 K	–	273.8
[1], 277.92 K	–	274.5
[1], 279.98 K	–	275.1
[1], 282.03 K	–	275.8
[1], 284.08 K	–	276.4
[1], 286.13 K	–	277
[1], 288.18 K	–	277.8
[1], 290.23 K	–	278.4
[1], 292.28 K	–	279.1
[1], 294.33 K	–	279.7
[1], 296.39 K	–	280.4
[1], 298.44 K	–	281
[1], 300.49 K	–	281.7
[1], 302.54 K	–	282.4
[1], 304.59 K	–	283
[1], 306.64 K	–	283.7
[1], 308.7 K	–	284.4
[1], 310.75 K	–	285
[1], 312.8 K	–	285.7
[1], 314.85 K	–	286.4
[1], 316.91 K	–	287.1
[1], 318.96 K	–	287.7
[1], 321.01 K	–	288.5
[1], 323.07 K	–	289.2
[1], 325.12 K	–	289.8
[1], 327.18 K	–	290.6
[1], 329.23 K	–	291.4
[1], 331.28 K	–	292.1
[1], 333.34 K	–	292.9
[1], 335.39 K	–	293.6
[1], 337.45 K	–	294.3
[1], 339.5 K	–	295.1
[1], 341.56 K	–	295.9
[1], 343.61 K	–	296.7
[1], 345.67 K	–	297.3
[1], 347.73 K	–	298.2
[1], 349.78 K	–	299.2
[1], 351.84 K	–	299.9
[1], 353.9 K	–	300.7
[1], 355.95 K	–	301.4
[1], 358.01 K	–	302.2
[1], 360.06 K	–	303.1
[1], 362.12 K	–	303.8
[1], 364.17 K	–	304.6
[1], 366.23 K	–	305.4
[1], 368.28 K	–	306.3
[3], 302.71 K	1355.9	–
[3], 307.7 K	1352.4	–
[3], 312.7 K	1348.9	–
[3], 317.71 K	1345.4	–
[3], 322.7 K	1341.9	–
[3], 327.7 K	1338.5	–
[3], 332.7 K	1335	–
[3], 337.69 K	1331.6	–
[3], 342.68 K	1328.2	–
[3], 347.68 K	1324.9	–
[3], 352.67 K	1321.6	–
[3], 357.67 K	1318.3	–
